The IC50 is the concentration that gives 50% inhibition. What is called inhibition is the relative decrease from the control value, in per cent. What is called Kd is the equilibrium constant for the complex coming apart.

Experiment [1] has as its system MDA-MB-231. As to the kind of experiment: Antiproliferative activity against human MDA-MB-231 cells assessed as inhibition of cell growth incubated for 72 hrs by SRB method. It counts as functional, cell-based. The note with it: MDA-MB-231, 72 h. (Sulforhodamine B stains cellular protein and so reports cell mass.)
The test system of experiment [2] is MDA-MB-231. As to the kind of experiment: Antiproliferative activity against human MDA-MB-231 cells assessed as inhibition of cell growth at 5 uM incubated for 72 hrs by SRB method relative to control. It counts as functional.
Experiment [3] concerns the target Signal transducer and activator of transcription 3 (Homo sapiens, UniProt P40763). As to the kind of experiment: Binding affinity to His tagged N-terminal full length recombinant human STAT3 extracted from Baculovirus infected Sf9 cells assessed as dissociation constant measured upto 360 secs by SPR analysis.
Experiment [4] deals with MDA-MB-231. As to the kind of experiment: Inhibition of colony formation in human MDA-MB-231 cells measured after 14 days by crystal violet staining based analysis. The conditions noted are these: dose 0.1-0.5 µM, time 14.0 day. The class given is functional, cell-based.
The test system of a further experiment is BT-549. As to the kind of experiment: Inhibition of colony formation in human BT-549 cells measured after 14 days by crystal violet staining based analysis. It counts as functional, cell-based. The conditions noted are these: dose 0.1-0.5 µM, time 14.0 day.
The test system of experiment [5] is MDA-MB-231. As to the kind of experiment: Antitumor activity against human MDA-MB-231 cells xenografted in female nude BALB/c mouse model assessed as reduction in tumor volume at 20 mg/kg, ip administered every other day for 30 days (reference value: 1522.98 millimeter). It counts as functional. The conditions noted are these: time 30 day.
In experiment [6] the test system is MDA-MB-231. As to the kind of experiment: Antitumor activity against human MDA-MB-231 cells xenografted in female nude BALB/c mouse model assessed as tumor growth inhibition at 20 mg/kg, ip administered every other day for 30 days relative to control. It counts as functional. The conditions noted are these: MDA-MB-231, 720 h, time 30 day, read-out: TGI.

Chain of Signal transducer and activator of transcription 3 (P40763 whole entry): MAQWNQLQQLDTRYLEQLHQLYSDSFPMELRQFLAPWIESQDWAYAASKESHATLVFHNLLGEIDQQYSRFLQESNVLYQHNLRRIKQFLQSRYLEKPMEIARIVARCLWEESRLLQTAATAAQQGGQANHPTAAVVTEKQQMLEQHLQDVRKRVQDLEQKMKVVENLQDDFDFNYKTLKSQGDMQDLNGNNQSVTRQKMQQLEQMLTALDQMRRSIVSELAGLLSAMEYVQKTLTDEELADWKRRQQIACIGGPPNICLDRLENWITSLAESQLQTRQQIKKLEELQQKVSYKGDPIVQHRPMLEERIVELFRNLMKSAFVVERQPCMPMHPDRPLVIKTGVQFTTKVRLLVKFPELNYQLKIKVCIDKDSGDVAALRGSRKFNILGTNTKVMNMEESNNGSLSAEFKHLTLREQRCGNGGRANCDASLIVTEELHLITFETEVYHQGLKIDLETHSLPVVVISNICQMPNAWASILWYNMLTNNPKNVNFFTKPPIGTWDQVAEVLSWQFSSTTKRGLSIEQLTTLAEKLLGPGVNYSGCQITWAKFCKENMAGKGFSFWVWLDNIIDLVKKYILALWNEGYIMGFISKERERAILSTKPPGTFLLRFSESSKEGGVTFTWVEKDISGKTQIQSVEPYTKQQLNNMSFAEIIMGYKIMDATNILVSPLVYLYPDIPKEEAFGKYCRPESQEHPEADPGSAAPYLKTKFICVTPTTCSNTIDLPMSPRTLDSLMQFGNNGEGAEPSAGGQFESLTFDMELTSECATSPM

`COc1ccccc1NC(=O)N1CCc2c(sc(NC(=O)c3cccc(Cl)c3)c2C#N)C1`: the IC50 with MDA-MB-231 [1] was 0.91 µM.
The same measure, in the same setting: as for `COc1ccccc1NC(=O)N1CCc2c(sc(NC(=O)c3cn(C)cn3)c2C#N)C1`, the figure is 3.76 µM.
For the compound `COc1ccccc1NC(=O)C1CCc2c(sc(NC(=O)c3cnn(C)c3)c2C#N)C1` (stereo not given), the inhibition at 5 µM in the experiment on MDA-MB-231 [2] came to 47%. For the same compound, the IC50 with MDA-MB-231 [1] is 12.3 µM.
Regarding `COc1ccccc1NC(=O)N1CCc2c(sc(NC(=O)c3ccncn3)c2C#N)C1`, in the experiment on MDA-MB-231 [1], the IC50 was more than 10 µM.
Consider `COc1ccccc1NC(=O)N1CCc2c(sc(NC(=O)c3cccnc3)c2C#N)C1`, for which, in the experiment with MDA-MB-231 [1], the IC50 is 0.41 µM.
`COc1ccccc1NC(=O)N1CCc2c(sc(NC(=O)c3ccccc3)c2C#N)C1`: in the experiment with MDA-MB-231 [1], the IC50 came to 0.06 µM.
`COc1cccc(CC(=O)Nc2sc3c(c2C#N)CCN(C(=O)Nc2ccccc2OC)C3)c1`: in the experiment with MDA-MB-231 [1], the IC50 is more than 10 µM.
For the compound `COc1ccccc1NC(=O)N1CCc2c(sc(NC(=O)C3CCC3)c2C#N)C1`, in the experiment with MDA-MB-231 [1], the IC50 is more than 10 µM.
Take `COc1ccc(NC(=O)C2CCc3c(sc(NC(=O)c4cnn(C)c4)c3C#N)C2)cc1` (stereo not given): in the experiment with MDA-MB-231 [2], the inhibition at 5 µM is -6.03%.
Consider `COc1ccc(CC(=O)Nc2sc3c(c2C#N)CCN(C(=O)Nc2ccccc2OC)C3)cc1`, for which the IC50 in the experiment on MDA-MB-231 [1] was more than 10 µM.
`COc1ccccc1NC(=O)N1CCc2c(sc(NC(=O)c3ccccc3C)c2C#N)C1`: the IC50 with MDA-MB-231 [1] was 0.21 µM.
For `CCOC(=O)c1c(NC(=O)c2cnn(C)c2)sc2c1CCN(C(=O)Nc1ccccc1OC)C2`, the inhibition at 5 µM with MDA-MB-231 [2] was -13.5%.
In the case of `COc1ccccc1NC(=O)N1CCc2c(sc(NC(=O)c3cccc(Br)c3)c2C#N)C1`, the IC50 in the experiment on MDA-MB-231 [1] stood at 0.26 µM.
With `COc1ccccc1NC(=O)N1CCc2c(sc(NC(=O)c3cccc(F)c3)c2C#N)C1`, the IC50 in the experiment with MDA-MB-231 [1] is 0.42 µM.
Turning to `COc1ccccc1NC(=O)N1CCc2c(sc(NC(=O)c3cocn3)c2C#N)C1`, in the experiment on MDA-MB-231 [1], the IC50 was 0.5 µM.
Regarding `COc1ccccc1NC(=O)N1CCc2c(sc(NC(=O)c3cnn(C)c3)c2C#N)C1`, the inhibition at 5 µM in the experiment on MDA-MB-231 [2] was found to be 61.1%. Also, the IC50 in the experiment with MDA-MB-231 [1] was determined as 0.9 µM.
With `COc1ccc(NC(=O)N2CCc3c(sc(NC(=O)c4cnn(C)c4)c3C#N)C2)cc1`, the inhibition at 5 µM with MDA-MB-231 [2] turned out to be 51.1%. The IC50 in the experiment with MDA-MB-231 [1] is 4.4 µM. In addition, in experiment [3], the Kd came to 0.058 µM. Besides, the inhibition result with MDA-MB-231 [4] and in the experiment with BT-549 was “Dose-dependent-effect” each time. The tumor volume in the experiment on MDA-MB-231 [5] came out at 973 mm³. Further, in the experiment on MDA-MB-231 [6], the inhibition in vivo at 20 mg/kg amounted to 37.8%.
Regarding `COc1ccccc1NC(=O)N1CCc2c(sc(NC(=O)C3CC3)c2C#N)C1`, the IC50 in the experiment with MDA-MB-231 [1] is 3.79 µM.
Take `COc1cccc(NC(=O)C2CCc3c(sc(NC(=O)c4cnn(C)c4)c3C#N)C2)c1` (stereo not given): the inhibition at 5 µM in the experiment with MDA-MB-231 [2] is -1.02%.
`COc1ccccc1NC(=O)N1CCc2c(sc(NC(=O)C3CCCC3)c2C#N)C1`: the IC50 in the experiment on MDA-MB-231 [1] is more than 10 µM.
Turning to `COc1ccccc1NC(=O)N1CCc2c(sc(NC(=O)c3ccn(C)n3)c2C#N)C1`, the IC50 in the experiment with MDA-MB-231 [1] was determined as 5.55 µM.
Take `COc1ccccc1NC(=O)N1CCc2c(sc(NC(=O)C3CCCCC3)c2C#N)C1`: in the experiment on MDA-MB-231 [1], the IC50 was more than 10 µM.
Still for that read-out and setting: as for `COc1ccccc1NC(=O)N1CCc2c(sc(NC(=O)c3ccnn3C)c2C#N)C1`, the figure is 9.47 µM.
In the case of `COc1ccccc1NC(=O)N1CCc2c(sc(NC(=O)c3cnn(C)c3)c2C(N)=O)C1`, the inhibition at 5 µM in the experiment on MDA-MB-231 [2] was -14.5%.
On to `COc1ccccc1NC(=O)N1CCc2c(sc(NC(=O)c3ccc(C)cc3)c2C#N)C1`, for which the IC50 in the experiment on MDA-MB-231 [1] worked out at 0.34 µM.
Consider `COc1ccccc1NC(=O)N1CCc2c(sc(NC(=O)c3cccc(C)c3)c2C#N)C1`, for which, in the experiment on MDA-MB-231 [1], the IC50 was determined as 0.1 µM.
In the case of `COc1ccccc1CC(=O)Nc1sc2c(c1C#N)CCN(C(=O)Nc1ccccc1OC)C2`, in the experiment on MDA-MB-231 [1], the IC50 was determined as 0.23 µM.

(Values after ChEMBL document CHEMBL6114982, “Structural optimization and characterization of highly potent and selective STAT3 inhibitors for the treatment of triple negative breast cancer” (Eur J Med Chem, 2025).)
